Source: patent US20250295815A1, “PORPHYRIN-HYDROPORPHYRIN COMPOUNDS, COMPOSITIONS COMPRISING THE SAME AND METHODS OF USE THEREOF” (North Carolina State University, priority 2021, published 2025)

Experiment: Dyad photophysical properties in toluene, excited at 405 nm
Assay type: physicochemical
Design: ext coeff (abs max B) / brightness (abs max): unit not given here
Details: for ext coeff (405 nm) / brightness (405 nm): at 405 nm; for ext coeff (405 nm) / FWHM / QY (x405) / abs max B / abs max Qx / abs max Qy / ext coeff (abs max B) / em max: room temperature; for ext coeff (405 nm): in M-1 cm-1 (unit assumed); for FWHM: emission peak; for FWHM / QY (x405) / em max: excited at 405 nm; for QY (x405): fluorescence quantum yield; for brightness (405 nm) / brightness (abs max): molar absorption coefficient x fluorescence quantum yield; for brightness (405 nm): in M⁻¹cm⁻¹; for brightness (abs max): at abs max
Description: The photophysical properties of samples were tested in toluene at room temperature and excited at 405 nm.

ext coeff (405 nm)	FWHM [nm]	QY (x405)	brightness (405 nm)	brightness (abs max)	abs max B [nm]	abs max Qx [nm]	abs max Qy [nm]	ext coeff (abs max B)	em max [nm]	SMILES
181,500	14	0.04	8,055	11,570	414	540	607	260,700	608	COC(=O)c1ccc(C2=c3ccc4[n]3[Zn][n]3c(ccc3C(c3ccc(C#Cc5ccc(C6=c7ccc8[n]7[Zn][n]7c(ccc7C=C7N=C(C=8)CC7(C)C)C=C7C=CC6=N7)cc5)cc3)=C3C=CC(=N3)C=4)C=C3C=CC2=N3)cc1 [P9-C4, methyl ester]
241,700	15	0.33	80,872	88,133	408	534	659	263,400	661	COC(=O)c1ccc(-c2c3nc(cc4ccc(cc5nc(cc6[nH]c2cc6C#Cc2ccc(C6=C7C=CC(=N7)C=c7ccc8[n]7[Zn][n]7c(ccc76)C=C6C=CC(=N6)C=8)cc2)CC5(C)C)[nH]4)C=C3)cc1 [P8-C2, methyl ester]

Second part, the compound before the results:

SMILES	ext coeff (405 nm)	FWHM [nm]	QY (x405)	brightness (405 nm)	brightness (abs max)	abs max B [nm]	abs max Qx [nm]	abs max Qy [nm]	ext coeff (abs max B)	em max [nm]
COC(=O)c1ccc(C#Cc2cc3cc4nc(cc5[nH]c(cc6nc(c(OC)c2[nH]3)CC6(C)C)cc5C#Cc2ccc(-c3c5nc(cc6ccc(cc7nc(cc8ccc3[nH]8)C=C7)[nH]6)C=C5)cc2)CC4(C)C)cc1 [Dyad P1-BC1]	276,800	21	0.23	64,405	64,405	405	529	760	276,800	765
COC(=O)c1ccc(-c2c3nc(cc4ccc(cc5nc(cc6[nH]c2cc6C#Cc2ccc(-c6c7nc(cc8ccc([nH]8)c(-c8c(C)cc(C)cc8C)c8nc(cc9ccc6[nH]9)C=C8)C=C7)cc2)CC5(C)C)[nH]4)C=C3)cc1 [P7-C1; P6-C3]	227,900	15	0.21	47,083	60,532	410	505	659	293,000	660
COC(=O)c1ccc(-c2c3nc(cc4ccc(cc5nc(cc6[nH]c2cc6C#Cc2ccc(CNC(=O)c6ccc(C7=C8C=CC(=N8)C=c8ccc9[n]8[Zn][n]8c(ccc87)C=C7C=CC(=N7)C=9)cc6)cc2)CC5(C)C)[nH]4)C=C3)cc1 [Dyad P4-C3]	318,900	–	0.07	22,648	23,813	407	532	656	335,300	659
